The values below come from patent US7598245B2 (Vertex Pharmaceuticals Incorporated, priority 2003, dated 2009).

Assay type in all cases: biochemical
The target of assay [1] is T1, CDK-2/Cyclin A (Homo sapiens, UniProt P24941).
T1 construct: 25 nM CDK-2/Cyclin A
The experiment in a line: Inhibition of CDK-2, coupled enzyme assay. Conditions: 100 μM ATP, 30° C. As for the experimental part:
Compounds are screened for their ability to inhibit CDK-2/Cyclin A using a standard coupled enzyme assay [Fox et al. Protein Sci. 1998, 7, 2249]. Reactions were carried out in 100 mM HEPES (pH 7.5), 10 mM MgCl2, 25 mM NaCl, 1 mM DTT and 1.5% DMSO. Final substrate concentrations in the assay are 100 μM ATP (Sigma chemicals) and 100 μM peptide (American Peptide, Sunnyvale, Calif.). Assays are carried out at 30° C. and 25 nM CDK-2/Cyclin A. Final concentrations of the components of the coupled enzyme system are 2.5 mM phosphoenolpyruvate, 350 μM NADH, 30 μg/ml pyruvate kinase and 10 μg/ml lactate dehydrogenase.
An assay stock buffer solution is prepared containing all of the reagents listed above, with the exception of CDK-2/Cyclin A, DTT and the test compound of interest. 56 μl of the test reaction is placed in a 384 well plate followed by addition of 1 μl of 2 mM DMSO stock containing the test compound (final compound concentration 30 μM). The plate is preincubated for ˜10 minutes at 30° C. and the reaction initiated by addition of 10 μl of enzyme (final concentration 25 nM). Rates of reaction are obtained using a BioRad Ultramark plate reader (Hercules, Calif.) over a 5 minute read time at 30° C. Ki values are determined according to standard methods.

Assay [2] deals with KDR (Homo sapiens, UniProt P35968). In words: Inhibition of KDR, coupled enzyme assay. The note with it: 300 μM ATP, 37° C. As for the experimental part: Compounds were screened for their ability to inhibit KDR using a standard coupled enzyme assay (Fox et al., Protein Sci., (1998) 7, 2249). Assays were carried out in a mixture of 200 mM HEPES 7.5, 10 mM MgCl2, 25 mM NaCl, 1 mM DTT and 1.5% DMSO. Final substrate concentrations in the assay were 300 μM ATP (Sigma Chemicals) and 10 μM poly E4Y (Sigma). Assays were carried out at 37° C. and 30 nM KDR. Final concentrations of the components of the coupled enzyme system were 2.5 mM phosphoenolpyruvate, 200 μM NADH, 30 μg/ML pyruvate kinase and 10 μg/ml lactate dehydrogenase.
An assay stock buffer solution was prepared containing all of the reagents listed above, with the exception of ATP and the test compound of interest. 177 μl of the stock solution was placed in a 96 well plate followed by addition of 3 μl of 2 mM DMSO stock containing the test compound (final compound concentration 30 μM). The plate was preincubated for about 10 minutes at 37° C. and the reaction initiated by addition of 20 μl of ATP (final concentration 300 μM). Rates of reaction were obtained using a Molecular Devices plate reader (Sunnyvale, Calif.) over a 5 minute read time at 37° C.

The target in assay [3] is GSK-3β (AA 1-420) (Homo sapiens, UniProt P49841). The experiment in a line: Inhibition of GSK-3, coupled enzyme system. Conditions: 20 μM ATP, 30° C. As for the experimental part: Compounds are screened for their ability to inhibit GSK-3β (AA 1-420) activity using a standard coupled enzyme system [Fox et al. Protein Sci. 1998, 7, 2249]. Reactions are carried out in a solution containing 100 mM HEPES (pH 7.5), 10 mM MgCl2, 25 mM NaCl, 300 μM NADH, 1 mM DTT and 1.5% DMSO. Final substrate concentrations in the assay are 20 μM ATP (Sigma Chemicals, St Louis, Mo.) and 300 μM peptide (American Peptide, Sunnyvale, Calif.). Reactions are carried out at 30° C. and 20 nM GSK-3β. Final concentrations of the components of the coupled enzyme system are 2.5 mM phosphoenolpyruvate, 300 μM NADH, 30 μg/ml pyruvate kinase and 10 μg/ml lactate dehydrogenase.
An assay stock buffer solution is prepared containing all of the reagents listed above with the exception of ATP and the test compound of interest. The assay stock buffer solution (175 μl) is incubated in a 96 well plate with 5 μl of the test compound of interest at final concentrations spanning 0.002 μM to 30 μM at 30° C. for 10 min. Typically, a 12 point titration is conducted by preparing serial dilutions (from 10 mM compound stocks) with DMSO of the test compounds in daughter plates. The reaction is initiated by the addition of 20 μl of ATP (final concentration 20 μM). Rates of reaction are obtained using a Molecular Devices Spectramax plate reader (Sunnyvale, Calif.) over 10 min at 30° C. The Ki values are determined from the rate data as a function of inhibitor concentration.

KDR, sequence (P35968 20-1356): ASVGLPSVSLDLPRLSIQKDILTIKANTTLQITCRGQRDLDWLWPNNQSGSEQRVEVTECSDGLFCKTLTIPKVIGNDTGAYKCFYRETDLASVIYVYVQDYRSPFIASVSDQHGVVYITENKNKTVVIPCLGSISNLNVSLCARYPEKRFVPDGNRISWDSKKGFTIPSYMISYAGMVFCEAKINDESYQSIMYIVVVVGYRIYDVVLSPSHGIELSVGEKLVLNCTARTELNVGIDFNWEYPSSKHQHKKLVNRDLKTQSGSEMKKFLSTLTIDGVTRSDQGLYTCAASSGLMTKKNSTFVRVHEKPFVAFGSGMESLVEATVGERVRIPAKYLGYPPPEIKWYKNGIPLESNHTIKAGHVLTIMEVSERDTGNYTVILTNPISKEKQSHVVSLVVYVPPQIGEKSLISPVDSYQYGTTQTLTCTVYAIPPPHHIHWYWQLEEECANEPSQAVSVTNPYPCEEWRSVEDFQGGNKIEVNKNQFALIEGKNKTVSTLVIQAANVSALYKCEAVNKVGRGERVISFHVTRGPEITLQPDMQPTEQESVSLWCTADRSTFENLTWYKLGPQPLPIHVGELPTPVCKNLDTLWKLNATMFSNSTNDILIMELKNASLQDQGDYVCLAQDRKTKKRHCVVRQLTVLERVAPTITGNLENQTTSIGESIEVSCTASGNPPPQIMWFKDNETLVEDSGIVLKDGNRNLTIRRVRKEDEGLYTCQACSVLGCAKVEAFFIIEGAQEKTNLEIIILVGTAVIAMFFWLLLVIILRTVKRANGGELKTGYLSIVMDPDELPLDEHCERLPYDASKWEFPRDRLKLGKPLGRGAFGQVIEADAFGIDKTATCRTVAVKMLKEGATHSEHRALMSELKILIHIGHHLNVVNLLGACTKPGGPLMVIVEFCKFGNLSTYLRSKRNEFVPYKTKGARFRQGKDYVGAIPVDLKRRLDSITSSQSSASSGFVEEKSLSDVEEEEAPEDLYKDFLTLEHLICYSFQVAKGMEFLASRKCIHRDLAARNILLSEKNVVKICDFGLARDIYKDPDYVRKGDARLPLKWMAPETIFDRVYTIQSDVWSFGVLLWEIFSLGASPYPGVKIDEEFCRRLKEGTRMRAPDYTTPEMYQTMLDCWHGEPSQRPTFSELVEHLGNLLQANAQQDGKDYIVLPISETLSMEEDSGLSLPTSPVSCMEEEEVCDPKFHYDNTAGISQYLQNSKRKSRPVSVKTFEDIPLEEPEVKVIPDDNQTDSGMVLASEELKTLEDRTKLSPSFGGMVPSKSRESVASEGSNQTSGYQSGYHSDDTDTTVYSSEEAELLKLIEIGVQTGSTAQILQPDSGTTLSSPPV
GSK-3β (AA 1-420), sequence (P49841 whole entry, the tested form may be a part): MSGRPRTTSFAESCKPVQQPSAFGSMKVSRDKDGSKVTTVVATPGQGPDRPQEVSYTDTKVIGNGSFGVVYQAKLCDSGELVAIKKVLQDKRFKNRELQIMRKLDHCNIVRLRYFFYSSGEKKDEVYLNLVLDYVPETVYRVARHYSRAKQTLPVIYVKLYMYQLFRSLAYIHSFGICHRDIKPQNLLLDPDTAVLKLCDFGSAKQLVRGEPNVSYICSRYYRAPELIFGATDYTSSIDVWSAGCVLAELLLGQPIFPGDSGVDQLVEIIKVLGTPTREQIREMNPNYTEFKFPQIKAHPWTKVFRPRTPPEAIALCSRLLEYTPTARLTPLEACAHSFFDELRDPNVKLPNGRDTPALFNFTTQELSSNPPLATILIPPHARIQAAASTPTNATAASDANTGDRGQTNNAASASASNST

Broadly, the Ki is the equilibrium dissociation constant of an inhibitor or competing ligand from its target. High values mean lower affinity, low ones higher affinity. `CC(=O)N1[C@H](C)CN(c2cc(-n3cnc(Nc4ccc(NC(=O)c5cccs5)cc4)n3)ccn2)C[C@@H]1C` [Compound I-80]: the Ki in assay [1] was less than 500 nM; in assay [2] it was 100 to 1000 nM; in assay [3], greater than 1000 nM.

Consider `COC(=O)Nc1ccc(Nc2ncn(-c3ccnc(N4C[C@@H](C)N(C(C)=O)[C@@H](C)C4)c3)n2)cc1` [Compound I-78], for which the Ki in assay [1] was less than 500 nM; in assay [2], less than 100 nM; in assay [3], greater than 1000 nM.

For `CC(C)CCN(C)c1cc(-n2cnc(Nc3ccccc3)n2)ccn1` [Compound I-62, methyl-(3-methyl-butyl)-[4-(3-phenylamino-[1,2,4]triazol-1-yl)-pyridin-2-yl]-amine], the figures for the Ki in assay [1], in assay [2] and in assay [3] were less than 500 nM, less than 100 nM and less than 500 nM, respectively.

With `CC(=O)N1CCCN(c2cc(-n3cnc(Nc4ccccc4)n3)ccn2)CC1` [Compound I-66], the inhibitory constant (Ki) in assay [1] was 500 to 1000 nM; in assay [2], 100 to 1000 nM; in assay [3], greater than 1000 nM.

Take `CC(=O)N1[C@H](C)CN(c2cc(-n3cnc(Nc4ccc(N)cc4)n3)ccn2)C[C@@H]1C` [Compound I-82]: the inhibition constant (Ki) was less than 500 nM in assay [1], less than 100 nM in assay [2] and greater than 1000 nM in assay [3].

On to `CCCNC(=O)Nc1ccc(Nc2ncn(-c3ccnc(N4C[C@@H](C)N(C(C)=O)[C@@H](C)C4)c3)n2)cc1` [Compound I-99], for which the inhibitory constant (Ki) in assay [1] was less than 500 nM; in assay [2], less than 100 nM; in assay [3], greater than 1000 nM.

As for `CCNC(=O)Nc1ccc(Nc2ncn(-c3ccnc(N4C[C@@H](C)N(C(C)=O)[C@@H](C)C4)c3)n2)cc1` [Compound I-98, 1-(4-{1-[2-(4-Acetyl-3,5-dimethyl-piperazin-1-yl)-pyridin-4-yl]-1H-[1,2,4]triazol-3-ylamino}-phenyl)-3-ethyl-urea], the Ki in assay [1] is less than 500 nM; in assay [2] it was less than 100 nM; in assay [3] it was greater than 1000 nM.

For the compound `c1ccc(Nc2ncn(-c3ccnc(N4CCCCCC4)c3)n2)cc1` [Compound I-73], the Ki in assay [1] is less than 500 nM; in assay [2] it was less than 100 nM; in assay [3] it was 500 to 1000 nM.

In the case of `CN1CCN(c2ccc(Nc3ncn(-c4ccccc4)n3)cn2)CC1` [Compound I-135], the inhibition constant (Ki) in assay [1] and in assay [3] was greater than 1000 nM each time.

`O=C(C1CCCO1)N1CCN(c2cc(-n3cnc(Nc4ccccc4)n3)ccn2)CC1` (centres unmarked) [Compound I-64]: the inhibitory constant (Ki) in assay [1], in assay [2] and in assay [3] was greater than 1000 nM each time.

For `CCOc1cccc(Nc2ncn(-c3ccccc3)n2)c1` [Compound I-45], the inhibitory constant (Ki) in assay [1] and in assay [3] was greater than 1000 nM throughout.

Turning to `CCN(CCO)c1cc(-n2cnc(Nc3ccccc3)n2)ccn1` [Compound I-54], the inhibition constant (Ki) in assay [1] was less than 500 nM; in assay [2], less than 100 nM; in assay [3], less than 500 nM.

For the compound `c1ccc(Nc2ncn(-c3ccnc(N4CCCCC4)c3)n2)cc1` [Compound I-49, phenyl-[1-(3,4,5,6-tetrahydro-2H-[1,2′]bipyridinyl-4′-yl)-1H-[1,2,4]triazol-3-yl]-amine], the Ki in assay [1] was less than 500 nM; in assay [2] it was less than 100 nM; in assay [3], 500 to 1000 nM.

Consider `CCOC(=O)c1ccc(Nc2ncn(-c3ccnc(N4C[C@@H](C)N(C(C)=O)[C@@H](C)C4)c3)n2)cc1` [Compound I-75], for which the inhibition constant (Ki) was 500 to 1000 nM in assay [1], less than 100 nM in assay [2] and greater than 1000 nM in assay [3].

Consider `CC(=O)N1[C@H](C)CN(c2cc(-n3cnc(Nc4ccc(N5CCN(C(=O)OC(C)(C)C)CC5)cc4)n3)ccn2)C[C@@H]1C` [Compound I-97, 4-(4-{1-[2-(4-Acetyl-3,5-dimethyl-piperazin-1-yl)-pyridin-4-yl]-1H-[1,2,4]triazol-3-ylamino}-phenyl)-piperazine-1-carboxylic acid tert-butyl ester], for which the figures for the Ki in assay [1], in assay [2] and in assay [3] were less than 500 nM, less than 100 nM and greater than 1000 nM, respectively.

On to `COCCN(C)c1cc(-n2cnc(Nc3ccccc3)n2)ccn1` [Compound I-59, (2-methoxy-ethyl)-methyl-[4-(3-phenylamino-[1,2,4]triazol-1-yl)-pyridin-2-yl]-amine], for which the figures for the Ki in assay [1], in assay [2] and in assay [3] were less than 500 nM, less than 100 nM and less than 500 nM, respectively.

For the compound `CC(=O)N1[C@H](C)CN(c2cc(-n3cnc(Nc4ccc(NC(=O)NC(C)C)cc4)n3)ccn2)C[C@@H]1C` [Compound I-100], the Ki in assay [1] was less than 500 nM; in assay [2], less than 100 nM; in assay [3], greater than 1000 nM.

Take `c1ccc(-n2cnc(Nc3ccc4c(c3)OCCO4)n2)cc1` [Compound I-44]: the inhibitory constant (Ki) in assay [1] and in assay [3] was greater than 1000 nM in each case.

As for `CN1C(C)(C)CC(Nc2cc(-n3cnc(Nc4ccccc4)n3)ccn2)CC1(C)C` [Compound I-61], the inhibition constant (Ki) in assay [1] was 500 to 1000 nM; in assay [2], 100 to 1000 nM; in assay [3], greater than 1000 nM.

Turning to `CC(C)CC(=O)N1CCCN(c2cc(-n3cnc(Nc4ccccc4)n3)ccn2)CC1` [Compound I-70], the inhibition constant Ki in assay [1], in assay [2] and in assay [3] was greater than 1000 nM each time.

As for `CC(=O)N1[C@H](C)CN(c2cc(-n3cnc(Nc4ccc(N5CCOCC5)cc4)n3)ccn2)C[C@@H]1C` [Compound I-85, 1-(2,6-Dimethyl-4-{4-[3-(4-morpholin-4-yl-phenylamino)-[1,2,4]triazol-1-yl]-pyridin-2-yl}-piperazin-1-yl)-ethanone], the figures for the Ki in assay [1], in assay [2] and in assay [3] were less than 500 nM, 100 to 1000 nM and greater than 1000 nM, respectively.

With `CCCC(=O)N1CCCN(c2cc(-n3cnc(Nc4ccccc4)n3)ccn2)CC1` [Compound I-68], the inhibition constant (Ki) in assay [1], in assay [2] and in assay [3] was greater than 1000 nM throughout.

Turning to `CC(=O)N1[C@H](C)CN(c2cc(-n3cnc(Nc4ccc(NC(=O)C(F)(F)F)cc4)n3)ccn2)C[C@@H]1C` [Compound I-79], the inhibition constant Ki in assay [1] was less than 500 nM; in assay [2], less than 100 nM; in assay [3], greater than 1000 nM.

As to `CC(C)C(=O)N1CCCN(c2cc(-n3cnc(Nc4ccccc4)n3)ccn2)CC1` [Compound I-69], the inhibition constant (Ki) in assay [1], in assay [2] and in assay [3] was greater than 1000 nM in each case.

As to `O=c1[nH]c2ccccc2n1C1CCN(c2cc(-n3cnc(Nc4ccccc4)n3)ccn2)CC1` [Compound I-63], the inhibitory constant (Ki) in assay [1], in assay [2] and in assay [3] was greater than 1000 nM each time.

Consider `c1ccc(-n2cnc(Nc3ccc(N4CCOCC4)nc3)n2)cc1` [Compound I-134], for which the results for the inhibition constant (Ki) in assay [1], in assay [2] and in assay [3] were greater than 1000 nM, 100 to 1000 nM and greater than 1000 nM, respectively.

As to `CC(C)Oc1cccc(Nc2ncn(-c3ccccc3)n2)c1` [Compound I-46], the Ki in assay [1] and in assay [3] was greater than 1000 nM each time.

Consider `COc1cc(Nc2ncn(-c3ccc(C#N)cc3)n2)cc(OC)c1OC` [Compound I-43], for which the inhibitory constant (Ki) in assay [1] and in assay [3] was 500 to 1000 nM throughout.

With `CCOc1ccc(Nc2ncn(-c3ccccc3)n2)cc1` [Compound I-47], the Ki in assay [1] and in assay [3] was greater than 1000 nM in each case.

Regarding `COc1cc(Nc2ncn(-c3ccccc3)n2)cc(OC)c1OC` [Compound I-42], the Ki in assay [1] and in assay [3] was greater than 1000 nM in each case.
